Experimental data reported in patent US20250241926A1, “HETEROCYCLIC COMPOUNDS FOR USE IN THE TREATMENT OF CANCER” (ARTIOS PHARMA LIMITED, priority 2021, published 2025).
Where two headings read alike, the source gives them in different places.

Target: T1, Human Polθ polymerase domain (aa1820-2590) (Homo sapiens, UniProt O75417)
T1 construct: Human Polθ polymerase domain (aa1820-2590) was expressed in E. Coli; made in house; host or cells: E. coli
T1 sequence (O75417 1820-2590): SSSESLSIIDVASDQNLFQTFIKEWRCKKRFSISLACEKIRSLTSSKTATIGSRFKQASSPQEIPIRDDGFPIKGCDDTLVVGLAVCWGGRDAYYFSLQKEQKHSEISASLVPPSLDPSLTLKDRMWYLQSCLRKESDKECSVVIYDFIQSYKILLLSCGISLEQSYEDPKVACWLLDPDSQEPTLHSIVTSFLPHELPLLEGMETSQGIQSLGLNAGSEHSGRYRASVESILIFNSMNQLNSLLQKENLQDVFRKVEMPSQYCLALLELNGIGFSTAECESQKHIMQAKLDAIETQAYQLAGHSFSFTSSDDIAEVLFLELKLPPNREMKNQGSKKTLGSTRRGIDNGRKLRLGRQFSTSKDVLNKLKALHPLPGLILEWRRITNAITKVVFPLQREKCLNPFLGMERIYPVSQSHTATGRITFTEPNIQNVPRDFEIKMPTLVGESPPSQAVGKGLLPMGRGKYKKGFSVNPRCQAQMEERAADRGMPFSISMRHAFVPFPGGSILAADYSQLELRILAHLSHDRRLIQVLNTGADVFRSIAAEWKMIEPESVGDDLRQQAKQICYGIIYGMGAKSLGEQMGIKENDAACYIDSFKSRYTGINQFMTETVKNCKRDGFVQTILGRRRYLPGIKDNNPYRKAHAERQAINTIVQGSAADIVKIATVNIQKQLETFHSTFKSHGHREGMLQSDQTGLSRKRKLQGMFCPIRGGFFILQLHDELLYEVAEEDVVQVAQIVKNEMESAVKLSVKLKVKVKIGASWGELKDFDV
Test: Polθ Polymerase Domain Kinact/Kl Assay (PicoGreen)
Type: biochemical
Settings: covalent inhibitors, kobs vs [I] fit, 0.8 nM Polθ, 100 nM DNA substrate
Procedure, shortened: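 E. coli-expressed enzyme (0.8 nM final) was run with 100 nM annealed DNA substrate and dNTPs in Tris pH 7.5 buffer (1% DMSO), with EDTA stops across a time course up to 60 min. Synthesised DNA was read by PicoGreen fluorescence. kobs per inhibitor concentration was fitted from the time courses, and Kinact and KI came from the kobs-vs-[I] plot.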

C=CC(=O)N1CC(OC2CCN(CCN3CC[C@H](Nc4nc(C)cc(C(F)(F)F)c4C#N)C(=O)N(C)c4cccc(F)c43)CC2)C1 [Example 13, (S)-2-((6-(2-(4-((1-Acrylo-ylazetidin-3-yl)oxy)piper-idin-1-yl)ethyl)-7-fluoro-1-methyl-2-oxo-1,2,3,4,5,6-hexahydrobenzo[b][1,4]diazocin-3-yl)amino)-6-methyl-4-(trifluorometh-yl)nicotinonitrile]
kinact/KI (read-out: Kinact/KI): 320000 M⁻¹ s⁻¹

Cc1cc(C(F)(F)F)c(C#N)c(N[C@H]2CCN(C[C@H]3CN(C4CN(C(=O)/C=C/CN(C)C)C4)CCO3)c3c(F)cccc3N(C)C2=O)n1 [Example 60, 2-(((S)-6-(((R)-4-(1-((E)-4-(Dimethylamino)but-2-enoyl)azetidin-3-yl)morpholin-2-yl)methyl)-7-fluoro-1-methyl-2-oxo-1,2,3,4,5,6-hexahydrobenzo[b][1,4]diazocin-3-yl)amino)-6-methyl-4-(trifluoromethyl)nicotinonitrile]
kinact/KI (read-out: Kinact/KI): 240000 M⁻¹ s⁻¹

C=CC(=O)N1CCN2CCN(CCN3CC[C@H](Nc4nc(C)cc(C(F)(F)F)c4C#N)C(=O)N(C)c4cccc(F)c43)CC2C1 (mixture of isomers) [Example 72B, 2-(((S)-6-(2-((S/R)-8-acryloyloctahydro-2H-pyrazino[1,2-a]pyrazin-2-yl)ethyl)-7-fluoro-1-methyl-2-oxo-1,2,3,4,5,6-hexahydrobenzo[b][1,4]diazocin-3-yl)amino)-6-methyl-4-(trifluoromethyl)nicotinonitrile]
kinact/KI: 630000 M⁻¹ s⁻¹

2-(((S)-6-(2-((S)-4-(1- Acryloylazetidin-3-yl)-2- methylpiperazin-1-yl)eth- yl)-7-fluoro-1-methyl-2- oxo-1,2,3,4,5,6-hexahydro- benzo[b][1,4]diazocin-3- yl)amino)-6-methyl-4- (trifluoromethyl)nicotino- nitrile [Example 14]
kinact/KI: 780000 M⁻¹ s⁻¹

2-(((S)-6-(2-((1R,4R)-5- (1-Acryloylazetidin-3-yl)- 2,5-diazabicyclo[2.2.1] heptan-2-yl)ethyl)-7- fluoro-1-methyl-2-oxo- 1,2,3,4,5,6-hexahydro- benzo[b][1,4]diazocin-3- yl)amino)-6-methyl-4- (trifluoromethyl)nicotino- nitrile [Example 18]
kinact/KI: 230000 M⁻¹ s⁻¹

Cc1cc(C(F)(F)F)c(C#N)c(N[C@H]2CCN(CCCOC3CN(C(=O)/C=C/CN(C)C)C3)c3cc(F)cc(F)c3N(C)C2=O)n1 [Example 43, (S,E)-2-((6-(3-((1-(4-(Dimethylamino)but-2-enoyl)azetidin-3-yl)oxy)propyl)-8,10-difluoro-1-methyl-2-oxo-1,2,3,4,5,6-hexahydrobenzo[b][1,4]diazocin-3-yl)amino)-6-methyl-4-(trifluoromethyl)nicotinonitrile]
kinact/KI (read-out: Kinact/KI): 900000 M⁻¹ s⁻¹

C=CC(=O)N1CC(N2CC(=O)N(C)C(CN3CC[C@H](Nc4nc(C)cc(C(F)(F)F)c4C#N)C(=O)N(C)c4cccc(F)c43)C2)C1 (single isomer, unassigned) [Example 58B]
kinact/KI (read-out: Kinact/KI): 40000 M⁻¹ s⁻¹

Cc1cc(C(F)(F)F)c(C#N)c(N[C@H]2CCN(C[C@@H]3CN(C4CN(C(=O)/C=C/CN(C)C)C4)CCO3)c3c(F)cccc3N(C)C2=O)n1 [Example 59, 2-(((S)-6-(((S)-4-(1-((E)-4-(Dimethylamino)but-2-enoyl)azetidin-3-yl)morpholin-2-yl)methyl)-7-fluoro-1-methyl-2-oxo-1,2,3,4,5,6-hexahydrobenzo[b][1,4]diazocin-3-yl)amino)-6-methyl-4-(trifluoromethyl)nicotinonitrile]
kinact/KI (read-out: Kinact/KI): 120000 M⁻¹ s⁻¹

C=CC(=O)N1CCN(CCCN2CC[C@H](Nc3nc(C)cc(C(F)(F)F)c3C#N)C(=O)N(C)c3ccc(F)cc32)CC1 [Example 38, (S)-2-((6-(3-(4-Acryloylpiperazin-1-yl)propyl)-8-fluoro-1-methyl-2-oxo-1,2,3,4,5,6-hexahydrobenzo[b][1,4]diazocin-3-yl)amino)-6-methyl-4-(trifluoromethyl)nicotinonitrile]
kinact/KI (read-out: Kinact/KI): 480000 M⁻¹ s⁻¹
